Measured values reported in EP4793271A1, “NEUROPROTECTIVE AGENT” (National Center of Neurology and Psychiatry, priority 2023, dated 2025).

How the values were obtained:
[1] = tested on: primary cultured cells of mouse fetus-derived dorsal root ganglia (DRGs); assay: Suppression of axonal degeneration after axotomy in DRG explant culture; assay type: cell-based; conditions: Mus musculus; minimum concentration at which axonal degeneration was suppressed (DI 0.3 or less); 24 hours after axotomy; read-out: Evaluation on protection against degeneration
Method: The compound of the present invention was studied for its protective effect against axonal injury using primary cultured cells of mouse fetus-derived dorsal root ganglia (DRGs).
DRGs were collected from a fetus derived from an ICR mouse (13.5 days of pregnancy). DRGs were cultured using a plate coated by incubation with 0.1 mg/mL poly-L-lysine at 4°C for 24 hours or longer, washing with PBS, and then incubation with 2.5 µg/mL Cultrex Mouse Laminin I at 37°C for 4 to 6 hours.
One of DRGs collected was plated to each well of the coated 24-well plate. The DRG was cultured in a nicotinamide-free medium for neuron (supplemented with 10% FBS, 1 mM glutamine, 50 ng/mL NGF2.5S, and penicillin-streptomycin) for 24 hours at maximum from the start of culture and then cultured in a nicotinamide-free medium for neuron (supplemented with 2% MACS NeuroBrew-21, 50 ng/mL NGF2.5S, 1% Glutamax, 20 µM uridine, 20 µM 5-fluoro-2'-deoxyuridine, and penicillin-streptomycin) for 7 to 8 days.
The nicotinamide-free medium for neuron was prepared so as to have the same constituents as those of the composition published in a previously reported paper (Brewer et al., J. Neuroscience Research 35: 567-576) except for nicotinamide with reference to this composition.
The test compound is dissolved in DMSO and added to cells such that the final concentration of DMSO is 0.1% (1000-fold dilution). 10 mM, 1 mM, 100 µM, 10 µM, 1 µM, and 100 nM samples of the test compound are prepared and added at a 1000-fold dilution to cells.
Axotomy was carried out by scooping out a cell body portion of the cultured DRG with a chip for a micropipette. The test compound was added at the following concentrations (final concentration: 10 µM, 1 µM, 100 nM, 10 nM, 1 nM, and 100 pM) within 30 minutes after axotomy. The compound was evaluated for its protective effect against axonal degeneration by imaging (Leica DMIL microscope, 20× objective lens) the state of neurites 24 hours after axotomy and evaluating the degree of degeneration. The degree of degeneration was quantified using a program uniquely developed using the R language. A degeneration index (DI) was used as an indicator for the degree of degeneration, and the ratio of the area of a fragmented axon to the total area of axons was calculated as defined in the equation of Expression 2. Suppressed axonal degeneration was evaluated when the value of DI was 0.3 or less. The minimum concentration at which axonal degeneration was suppressed was determined for each compound. Degeneratioin index (DI) = (Degenerated axons)/(All axons) [formula]
The axonal protective activity was evaluated as A ≤ 0.01 µM, 0.01 µM < B ≤ 0.1 µM, and 0.1 µM < C ≤ 1 µM depending on the minimum concentration at which axonal degeneration was suppressed.

hSARM1 = target: T1, hSARM1 (Homo sapiens, UniProt Q6SZW1); assay: Human SARM1 activity measurement in HEK293 cells transiently transfected with ΔN-hSARM1 (PC6 fluorescent probe); assay type: cell-based; parameters: expressed in transfected cells; host or cells: HEK293, pcDNA3 expression vector; conditions: inhibition rate; compound 30 µM; PC6 50 µM; HEK293 cells expressing ΔN-hSARM1; approximately 48 hours from transfection; read-out: Evaluation on hSARM1 inhibitory
T1 sequence (Q6SZW1 28-724): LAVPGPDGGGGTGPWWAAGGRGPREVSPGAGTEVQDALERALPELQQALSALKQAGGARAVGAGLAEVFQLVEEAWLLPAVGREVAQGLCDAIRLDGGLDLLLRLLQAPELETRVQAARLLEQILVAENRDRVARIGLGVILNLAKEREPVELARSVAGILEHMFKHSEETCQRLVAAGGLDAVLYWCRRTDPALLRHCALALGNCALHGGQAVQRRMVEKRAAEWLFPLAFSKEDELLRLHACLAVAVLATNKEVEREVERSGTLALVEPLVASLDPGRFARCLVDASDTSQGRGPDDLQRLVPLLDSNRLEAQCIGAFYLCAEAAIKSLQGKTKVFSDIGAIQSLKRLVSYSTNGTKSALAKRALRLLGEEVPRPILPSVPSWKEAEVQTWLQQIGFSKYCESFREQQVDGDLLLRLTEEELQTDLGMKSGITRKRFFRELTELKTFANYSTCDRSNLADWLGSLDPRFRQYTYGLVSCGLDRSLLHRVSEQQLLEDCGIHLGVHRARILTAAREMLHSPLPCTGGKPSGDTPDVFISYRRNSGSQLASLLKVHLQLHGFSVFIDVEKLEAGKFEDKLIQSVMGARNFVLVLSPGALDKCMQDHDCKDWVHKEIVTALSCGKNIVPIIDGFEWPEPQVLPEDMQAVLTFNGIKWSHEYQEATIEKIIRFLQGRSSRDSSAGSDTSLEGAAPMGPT
Method: HEK293 cells cultured in a prepared medium of nicotinamide-free DMEM (Dulbecco's modified Eagle medium) supplemented with 10% FBS (BioSera), a 1% penicillin-streptomycin solution (FUJIFILM Wako Pure Chemical Corp.), 5 μM nicotinamide were inoculated at approximately 50,000 cells/well to a 96-well microplate, and the cells were cultured at 37°C under 5% CO2, transiently transfected on the next day with a pcDNA3 expression vector containing a DNA sequence (SEQ ID NO: 1) deficient in a mitochondrial targeting sequence encoded by an N-terminal 78-base sequence in cDNA encoding human sterile α- and armadillo-motif-containing protein (hSARM1) using PEI MAX(R) reagent (PolySciences Inc.), and forced to express ΔN-hSARM1 (SEQ ID NO: 2). Approximately 8 hours later, PC6, which reacts as a substrate of SARM1-specific base exchange reaction and functions as a fluorescent probe, was added thereto at a final concentration of 50 μM, and intracellular hSARM1 activity was measured (Li et al, eLife 2021 10: e67381). A compound for inhibitory activity evaluation was added at a final concentration of 30 μM at the same time with PC6, while dimethyl sulfoxide (Nacalai Tesque Inc.) was added to samples of a control group at the same time with PC6. The cells were incubated at 37°C under 5% CO2 for approximately 48 hours from transfection, followed by fluorescent signal measurement using SpectraMax M2 (Molecular Devices) (excitation: 405 nm, fluorescence: 525 nm, fluorescence cutoff: 515 nm). Results of this screening are reported as an inhibition rate (%) relative to a negative control defined as follows by using fluorescence intensity measured from a control group without transfection with ΔN-hSARM1 as a background whereas using fluorescence intensity measured from a control group transfected with ΔN-hSARM1 as the negative control. Inhibitory rate (%) = 100-(([…]-Background))/((Signalofthenegativecontrol-Background)) × 100 [formula] The nicotinamide-free medium was prepared so as to have the same composition as that of DMEM having known composition which is generally used in the art except for nicotinamide. […]

O=C(/C=C/c1cccnc1)Nc1cccc(OC(=O)/C=C/c2cccnc2)c1 [compound 33]
minimal effective concentration [1]: 0.01 to 0.1 µM | inhibition at 30 µM (hSARM1): > 75%

O=C(/C=C/c1cccnc1)NCCCCCCNC(=O)/C=C/c1cccnc1 [compound 38]
minimal effective concentration [1]: ≤ 0.01 µM | inhibition at 30 µM (hSARM1): > 75%

C/C(=C\C(=O)NCCCCCCNC(=O)/C=C(\C)c1cccnc1)c1cccnc1 [compound 42]
minimal effective concentration [1]: ≤ 0.01 µM | inhibition at 30 µM (hSARM1): > 75%

O=C(NCCCOc1ccc(CNC(=O)c2cccnc2)cc1)c1cccnc1 [compound 52]
minimal effective concentration [1]: ≤ 0.01 µM | inhibition at 30 µM (hSARM1): > 50%

O=C(/C=C/c1cccnc1)NCCCOc1ccc(CNC(=O)c2cccnc2)cc1 [compound 53]
minimal effective concentration [1]: ≤ 0.01 µM | inhibition at 30 µM (hSARM1): > 75%

O=C(NCCOCCOc1ccc(CNC(=O)c2cccnc2)cc1)c1cccnc1 [compound 54]
minimal effective concentration [1]: ≤ 0.01 µM | inhibition at 30 µM (hSARM1): > 75%

O=C(/C=C/c1cccnc1)NCCOCCOc1ccc(CNC(=O)c2cccnc2)cc1 [compound 55]
minimal effective concentration [1]: ≤ 0.01 µM | inhibition at 30 µM (hSARM1): > 75%

C/C(=C\C(=O)NCCOCCOc1ccc(CNC(=O)c2cccnc2)cc1)c1cccnc1 [compound 56]
minimal effective concentration [1]: ≤ 0.01 µM | inhibition at 30 µM (hSARM1): > 50%

O=C(/C=C/c1cccnc1)Nc1ccc(NC(=O)/C=C/c2cccnc2)cc1 [compound 58]
minimal effective concentration [1]: ≤ 0.01 µM | inhibition at 30 µM (hSARM1): > 75%

O=C(/C=C/c1cccnc1)NCc1ccc(NC(=O)/C=C/c2cccnc2)cc1 [compound 62]
minimal effective concentration [1]: ≤ 0.01 µM | inhibition at 30 µM (hSARM1): > 75%

O=C(/C=C/c1ccccc1)NCc1ccc(CNC(=O)c2cccnc2)cc1 [compound 66]
minimal effective concentration [1]: ≤ 0.01 µM | inhibition at 30 µM (hSARM1): > 75%

C#CCCOc1ccc(C(=O)NCCCCCCNC(=O)c2cccnc2)cc1 [compound 68]
minimal effective concentration [1]: ≤ 0.01 µM | inhibition at 30 µM (hSARM1): > 75%

O=C(/C=C/c1cccnc1)NCCCOCCOCCCNC(=O)/C=C/c1cccnc1 [compound 69]
minimal effective concentration [1]: ≤ 0.01 µM | inhibition at 30 µM (hSARM1): > 75%

O=C(/C=C/c1cccnc1)NCc1ccc(NC(=O)c2ccccc2)nc1 [compound 77]
minimal effective concentration [1]: ≤ 0.01 µM | inhibition at 30 µM (hSARM1): > 75%

O=C(Cc1ccc(C(F)(F)F)cc1)Nc1ccc(CNC(=O)c2cccnc2)cn1 [compound 89]
minimal effective concentration [1]: ≤ 0.01 µM | inhibition at 30 µM (hSARM1): > 75%

O=C(NCc1ccc(NC(=O)C2COC2)cc1)c1cccnc1 [compound 93]
minimal effective concentration [1]: 0.01 to 0.1 µM | inhibition at 30 µM (hSARM1): > 50%

CC(C)(C)OC(=O)N1CC(C(=O)Nc2ccc(CNC(=O)c3cccnc3)cn2)C1 [compound 94]
minimal effective concentration [1]: ≤ 0.01 µM | inhibition at 30 µM (hSARM1): > 75%

O=C(Nc1ccc(CCc2ccc(NC(=O)c3cccnc3)cc2)cc1)c1cccnc1 [compound 101]
minimal effective concentration [1]: ≤ 0.01 µM | inhibition at 30 µM (hSARM1): > 75%
